# Test results taken from PMC8434884 (Journal of medicinal chemistry, 2020).
# “Also recorded” adds a separate entry of the source.
# Columns and labels:
# human h5-HT2AR = human h5-HT2AR (Homo sapiens, UniProt P28223); assay: 5-HT-induced Cai2+ release assay in h5-HT2AR-CHO cells; type: cell-based
# α 1B = target: T1, α 1B (Homo sapiens, UniProt P35368); assay: NIMH PDSP radioligand binding displacement, α 1B; settings: read-out: % inhibition (10 μM)
# T1 sequence (P35368 1-520): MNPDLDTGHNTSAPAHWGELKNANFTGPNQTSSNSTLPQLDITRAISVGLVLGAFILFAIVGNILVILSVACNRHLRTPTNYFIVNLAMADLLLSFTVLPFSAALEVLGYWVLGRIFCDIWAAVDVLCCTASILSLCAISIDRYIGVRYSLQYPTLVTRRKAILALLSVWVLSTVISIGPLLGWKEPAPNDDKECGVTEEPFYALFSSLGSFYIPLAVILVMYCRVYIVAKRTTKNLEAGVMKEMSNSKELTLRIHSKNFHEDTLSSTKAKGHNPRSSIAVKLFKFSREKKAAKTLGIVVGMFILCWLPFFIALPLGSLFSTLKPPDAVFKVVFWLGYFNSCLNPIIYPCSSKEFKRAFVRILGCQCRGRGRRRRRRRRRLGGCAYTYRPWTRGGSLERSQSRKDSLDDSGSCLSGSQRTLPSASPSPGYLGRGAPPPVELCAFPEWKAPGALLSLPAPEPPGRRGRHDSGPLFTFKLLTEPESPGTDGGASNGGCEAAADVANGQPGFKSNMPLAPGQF
# male Sprague–Dawley rats = assay: WAY163909 versus saline two-lever drug discrimination assay; type: in vivo, rat; settings: 12 alone 0.5–5 mg/kg ip
# [1] = target: T2, human 5-HT2CR (unedited INI isoform) (Homo sapiens, UniProt P28335); settings: h5-HT2CR-CHO cells
# T2 sequence (P28335 33-458): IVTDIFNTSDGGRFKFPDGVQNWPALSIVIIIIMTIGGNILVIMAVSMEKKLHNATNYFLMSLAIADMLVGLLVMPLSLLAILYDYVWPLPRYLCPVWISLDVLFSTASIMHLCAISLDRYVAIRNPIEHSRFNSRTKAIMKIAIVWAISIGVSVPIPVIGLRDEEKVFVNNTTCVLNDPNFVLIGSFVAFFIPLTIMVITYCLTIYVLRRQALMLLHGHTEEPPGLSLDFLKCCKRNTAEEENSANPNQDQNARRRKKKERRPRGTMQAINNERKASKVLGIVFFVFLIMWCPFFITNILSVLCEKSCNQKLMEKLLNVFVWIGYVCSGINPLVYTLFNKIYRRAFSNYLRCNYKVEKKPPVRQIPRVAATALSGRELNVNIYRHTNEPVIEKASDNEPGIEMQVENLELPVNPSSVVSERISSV
# CYP3A4 = CYP3A4 (Homo sapiens, UniProt P08684); assay: CYP3A4 inhibition; settings: 10 μM
# CYP2C9 = CYP2C9 (Homo sapiens, UniProt P11712); assay: CYP2C9 inhibition; settings: 10 μM
# CYP2D6 = CYP2D6 (Homo sapiens, UniProt P10635); assay: CYP2D6 inhibition; settings: 10 μM
# CYP1A2 = target: T3, CYP1A2 (Homo sapiens, UniProt P05177); assay: CYP1A2 inhibition; settings: 10 μM
# T3 sequence (P05177 1-516): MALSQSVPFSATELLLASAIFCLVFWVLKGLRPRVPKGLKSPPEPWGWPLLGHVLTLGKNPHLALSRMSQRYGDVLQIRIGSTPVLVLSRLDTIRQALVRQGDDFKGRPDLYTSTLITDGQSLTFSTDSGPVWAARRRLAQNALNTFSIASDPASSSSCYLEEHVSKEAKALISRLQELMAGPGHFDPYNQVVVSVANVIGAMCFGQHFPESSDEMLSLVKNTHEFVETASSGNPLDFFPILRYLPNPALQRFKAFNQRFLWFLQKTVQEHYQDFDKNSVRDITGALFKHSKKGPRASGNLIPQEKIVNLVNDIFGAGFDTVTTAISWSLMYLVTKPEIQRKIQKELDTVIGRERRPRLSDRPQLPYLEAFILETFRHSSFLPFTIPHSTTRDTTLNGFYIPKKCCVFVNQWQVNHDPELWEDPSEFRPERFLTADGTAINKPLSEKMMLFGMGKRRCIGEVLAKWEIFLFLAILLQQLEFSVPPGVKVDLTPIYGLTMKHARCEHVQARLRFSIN
# CYP2C19 = CYP2C19 (Homo sapiens, UniProt P33261); assay: CYP2C19 inhibition; settings: 10 μM
# kinetic solubility = settings: 2 h
# [2] = rat liver microsomal clearance; settings: microsomes
# Chain of human h5-HT2AR (P28223 whole entry): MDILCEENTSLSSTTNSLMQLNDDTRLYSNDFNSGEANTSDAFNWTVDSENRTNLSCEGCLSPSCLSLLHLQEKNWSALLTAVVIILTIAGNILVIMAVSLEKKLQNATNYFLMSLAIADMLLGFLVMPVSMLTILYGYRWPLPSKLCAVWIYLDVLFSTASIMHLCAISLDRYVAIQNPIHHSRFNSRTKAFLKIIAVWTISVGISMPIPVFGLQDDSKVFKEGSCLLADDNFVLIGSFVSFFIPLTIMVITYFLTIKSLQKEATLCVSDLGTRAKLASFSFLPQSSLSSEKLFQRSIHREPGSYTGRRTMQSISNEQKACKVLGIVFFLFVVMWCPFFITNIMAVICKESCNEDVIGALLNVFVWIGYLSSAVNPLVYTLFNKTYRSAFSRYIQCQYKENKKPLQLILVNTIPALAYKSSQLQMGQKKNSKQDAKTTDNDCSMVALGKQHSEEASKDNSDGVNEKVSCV
# Chain of CYP2C9 (P11712 whole entry): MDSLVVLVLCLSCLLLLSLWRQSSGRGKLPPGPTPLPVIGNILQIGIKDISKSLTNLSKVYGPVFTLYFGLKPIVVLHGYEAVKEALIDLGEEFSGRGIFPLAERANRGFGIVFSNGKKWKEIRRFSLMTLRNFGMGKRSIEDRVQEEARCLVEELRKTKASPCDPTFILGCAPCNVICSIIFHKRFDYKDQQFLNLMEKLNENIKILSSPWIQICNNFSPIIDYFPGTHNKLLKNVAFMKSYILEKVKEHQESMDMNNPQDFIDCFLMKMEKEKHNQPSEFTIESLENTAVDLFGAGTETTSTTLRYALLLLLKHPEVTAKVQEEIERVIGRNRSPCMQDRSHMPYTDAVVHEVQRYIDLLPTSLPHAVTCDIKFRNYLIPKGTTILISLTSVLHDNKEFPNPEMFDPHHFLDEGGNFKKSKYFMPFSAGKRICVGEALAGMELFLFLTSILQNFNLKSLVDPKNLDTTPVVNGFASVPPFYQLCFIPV
# Chain of CYP3A4 (P08684 whole entry): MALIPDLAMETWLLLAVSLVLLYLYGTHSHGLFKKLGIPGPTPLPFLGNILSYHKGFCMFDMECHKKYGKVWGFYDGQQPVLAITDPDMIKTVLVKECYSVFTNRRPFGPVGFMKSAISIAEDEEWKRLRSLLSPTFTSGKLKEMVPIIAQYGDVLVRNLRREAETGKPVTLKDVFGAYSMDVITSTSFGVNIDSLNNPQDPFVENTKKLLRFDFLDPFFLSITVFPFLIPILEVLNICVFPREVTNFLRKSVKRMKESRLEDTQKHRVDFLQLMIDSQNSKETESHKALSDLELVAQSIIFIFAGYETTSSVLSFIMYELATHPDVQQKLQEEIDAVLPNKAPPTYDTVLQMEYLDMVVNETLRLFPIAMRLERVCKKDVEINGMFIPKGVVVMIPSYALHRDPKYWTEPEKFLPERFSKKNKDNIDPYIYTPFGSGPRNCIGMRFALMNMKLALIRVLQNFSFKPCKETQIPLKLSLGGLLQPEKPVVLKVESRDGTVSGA
# Chain of CYP2C19 (P33261 whole entry): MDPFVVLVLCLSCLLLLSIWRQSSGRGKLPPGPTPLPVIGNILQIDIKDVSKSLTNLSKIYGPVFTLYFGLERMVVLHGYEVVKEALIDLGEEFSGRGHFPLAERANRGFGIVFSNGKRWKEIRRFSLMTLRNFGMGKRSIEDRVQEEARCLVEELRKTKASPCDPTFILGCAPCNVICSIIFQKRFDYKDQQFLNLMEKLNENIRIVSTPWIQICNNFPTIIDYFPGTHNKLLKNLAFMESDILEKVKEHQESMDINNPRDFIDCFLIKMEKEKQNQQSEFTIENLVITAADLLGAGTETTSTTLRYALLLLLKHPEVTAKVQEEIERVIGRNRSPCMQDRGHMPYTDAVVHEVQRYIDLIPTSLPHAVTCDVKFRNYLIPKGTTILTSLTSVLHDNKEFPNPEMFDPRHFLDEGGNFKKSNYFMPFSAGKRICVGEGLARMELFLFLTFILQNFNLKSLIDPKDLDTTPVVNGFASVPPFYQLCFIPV
# Chain of CYP2D6 (P10635 whole entry): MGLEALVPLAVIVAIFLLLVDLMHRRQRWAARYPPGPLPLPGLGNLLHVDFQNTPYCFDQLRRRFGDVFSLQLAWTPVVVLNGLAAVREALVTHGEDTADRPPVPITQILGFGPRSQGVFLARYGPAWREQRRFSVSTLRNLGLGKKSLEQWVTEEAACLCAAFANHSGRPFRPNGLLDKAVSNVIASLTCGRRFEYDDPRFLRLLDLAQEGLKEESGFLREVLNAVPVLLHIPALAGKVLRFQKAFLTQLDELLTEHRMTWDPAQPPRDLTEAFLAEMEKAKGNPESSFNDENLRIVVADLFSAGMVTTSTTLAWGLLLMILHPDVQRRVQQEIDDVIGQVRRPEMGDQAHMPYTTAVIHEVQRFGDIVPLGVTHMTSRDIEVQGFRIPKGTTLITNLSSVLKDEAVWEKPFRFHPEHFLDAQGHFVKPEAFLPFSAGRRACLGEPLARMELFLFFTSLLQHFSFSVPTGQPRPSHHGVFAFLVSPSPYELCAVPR
structure (smiles),measurement,setting,value
"O=C(NC[C@H](O)CO)[C@@H]1C[C@H](c2ccccc2)CCN1 (mixture of isomers) [Compound 12, (2,4-cis)-N-((S)-2,3-Dihydroxypropyl)-4-phenylpiperidine-2-carboxamide]",alteration of Emax or EC50 of 5-HT-induced Cai2+ release (in words),human h5-HT2AR,no alteration in the Emax or EC50; also recorded: inactive as an agonist or allosteric modulator
same,inhibition at 10 µM,α 1B,-11%
same,response rates (in words),male Sprague–Dawley rats,no change in response rates
same,"substitution for WAY163909 (lever responding, in words)",male Sprague–Dawley rats; 30 min prior to testing,evoked saline lever responding
same,5-HT2CR positive allosteric modulator activity (in words),"[1]; 1 nM, 5-HT-induced Cai2+ release",significant PAM activity
same,intrinsic agonist activity to induce Cai2+ release prior to addition of 5-HT,[1]; compound added 15 min before 5-HT,did not exhibit intrinsic activity
same,CYP3A4 inhibition,CYP3A4,0.0% (10 μM)
same,CYP2C9 inhibition,CYP2C9,0.0% (10 μM)
same,CYP2D6 inhibition,CYP2D6,1.9% (10 μM)
same,CYP1A2 inhibition,CYP1A2,11.8% (10 μM)
same,CYP2C19 inhibition,CYP2C19,0.0% (10 μM)
same,kinetic solubility (PBS; pH 7.4),kinetic solubility,highly soluble
same,microsomal CLint at 10 μM,[2],< 9.6 µL/min/mg
